How the values were obtained:
CYPIR (Cyperus iria) = assay: Flooded paddy, preemergence weed control; type: in vivo; settings: rate 0.1250 kg/ha, rated 3-4 weeks after treatment, 0-9 rating scale
Method: (§1) Results of herbicide evaluation are expressed on a rating scale (0-9). The scale is based upon a visual observation of plant stand, vigor, malformation, size, chlorosis and overall plant appearance as compared with a control.
(§2) Preemergence herbicidal activity under flooded paddy conditions is determined as follows: plant seeds or propagating organs are planted in the top 0.5 cm of silt loam soil in 32 oz. plastic containers with a diameter of 10.5 cm and no drainage holes. Water is added to these containers and maintained at 1.5 to 3 cm above the soil surface for the duration of the experiment. […] The treated containers are placed on greenhouse benches and cared for in accordance with conventional greenhouse procedures.

[1] = tested on: IPOHE (Ipomoea hederacea); assay: Preemergence herbicidal evaluation; type: in vivo, (L.) Jacq.; settings: Rate 0.2500 kg/ha; preemergence; rated 4-5 weeks after treatment
From the text: as §1
(§3) The preemergence herbicidal activity of the test compounds of the present invention is exemplified by the following tests in which the seeds of a variety of monocotyledonous and dicotyledonous plants are separately mixed with potting soil and planted on top of approximately one inch of soil in separate pint cups. […] The treated cups are then placed on greenhouse benches, watered and cared for in accordance with conventional greenhouse procedures. From four to five weeks after treatment, the tests are terminated and each cup is examined and rated according to the rating system provided in Example 87. The plant species used and the compounds evaluated are the same as those shown in Example 87.

[2] = tested on: ABUTH (Abutilon theophrasti); assay: Preemergence herbicidal evaluation; type: in vivo, Medic.; settings: Rate 0.2500 kg/ha; preemergence; rated 4-5 weeks after treatment
From the text: as §1, §3

[3] = tested on: ECHCG (Echinochloa crus-galli); assay: Preemergence herbicidal evaluation; type: in vivo, (L.) Beau; settings: Rate 0.2500 kg/ha; preemergence; rated 4-5 weeks after treatment
From the text: as §1, §3

SETVI (Setaria viridis) [4] = assay: Preemergence herbicidal evaluation; type: in vivo, (L.) Beau; settings: Rate 0.2500 kg/ha; preemergence; rated 4-5 weeks after treatment
From the text: as §1, §3

[5] = tested on: ECHORC (Echinochloa oryzoides); assay: Flooded paddy, preemergence weed control; type: in vivo, Echinochloa oryzoides (Ard.) Fritsch.; settings: rate 0.1250 kg/ha, rated 3-4 weeks after treatment, 0-9 rating scale
Method: as §1, §2

[6] = tested on: IPOHE (Ipomoea hederacea); assay: Postemergence herbicidal evaluation; type: in vivo, (L.) Jacq.; settings: rate 0.0620 kg/ha
Method: (§4) In the tests, seedling plants are grown in jiffy flats for about two weeks. […] After spraying, the plants are placed on greenhouse benches and are cared for in accordance with conventional greenhouse procedures. From four to five weeks after treatment, the seedling plants are examined and rated according to the rating system set forth below. Where more than one test is involved for a given compound, the data are averaged.
as §1

GALAP (Galium aparine) [7] = assay: Preemergence herbicidal evaluation; type: in vivo; settings: Rate 0.2500 kg/ha; preemergence; rated 4-5 weeks after treatment
From the text: as §1, §3

[8] = tested on: TRZAWR (Wheat, Winter, cv Riband); assay: Preemergence herbicidal evaluation; type: in vivo, Triticum aestivum; settings: Rate 0.2500 kg/ha; preemergence; rated 4-5 weeks after treatment
From the text: as §1, §3

[9] = tested on: CYPSE (Cyperus serotinus); assay: Flooded paddy, preemergence weed control; type: in vivo, Rottb.; settings: rate 0.1250 kg/ha, rated 3-4 weeks after treatment, 0-9 rating scale
Method: as §1
Preemergence herbicidal activity under flooded paddy conditions is determined as follows: plant seeds or propagating organs are planted in the top 0.5 cm of silt loam soil in 32 oz. plastic containers with a diameter of 10.5 cm and no drainage holes. Water is added to these containers and maintained at 1.5 to 3 cm above the soil surface for the duration of the experiment. The test compounds are applied as aqueous/acetone mixtures 50/50 v/v pipetted directly into the flood water to give the equivalent of about 0.0080 to 0.1250 kg/ha of active ingredient. The treated containers are placed on greenhouse benches and cared for in accordance with conventional greenhouse procedures. Three to four weeks after treatment, the test is terminated and each container is examined and herbicidal effect rated according to the rating system provided in Example 87.

[10] = tested on: AMBEL (Ambrosia artemisifolia); assay: Preemergence herbicidal evaluation; type: in vivo, L.; settings: Rate 0.2500 kg/ha; preemergence; rated 4-5 weeks after treatment
From the text: as §1, §3

[11] = tested on: CASOB (Cassia obtusifolia); assay: Preemergence herbicidal evaluation; type: in vivo, L.; settings: Rate 0.2500 kg/ha; preemergence; rated 4-5 weeks after treatment
From the text: as §1, §3

[12] = tested on: CHEAL (Chenopodium album); assay: Preemergence herbicidal evaluation; type: in vivo, L.; settings: Rate 0.2500 kg/ha; preemergence; rated 4-5 weeks after treatment
From the text: as §1, §3

ZEAMX (Corn, Field) [13] = assay: Postemergence herbicidal evaluation; type: in vivo, Zea mays, L.; settings: rate 0.0620 kg/ha
Method: as §4, §1

ORYSAT (Rice, Tebonnet) [14] = assay: Preemergence herbicidal evaluation; type: in vivo, Oryza sativa, (L.) Tebonnet; settings: Rate 0.2500 kg/ha; preemergence; rated 4-5 weeks after treatment
From the text: as §1, §3

[15] = tested on: ECHCG (Echinochloa crus-galli); assay: Postemergence herbicidal evaluation; type: in vivo, (L.) Beau; settings: rate 0.0620 kg/ha
Method: as §4, §1

ORYSAT (Rice, Tebonnet) [16] = assay: Flooded paddy, post-transplant rice tolerance; type: in vivo, Oryza sativa, (L.) Tebonnet; settings: in vivo
Method: as §1
The tolerance of transplanted rice to post-transplanted herbicide application is determined as follows: two ten-day-old rice seedlings (cv. Tebonnet) are transplanted into silt loam soil in 32 oz. plastic containers with a diameter of 10.5 cm and no drainage holes. After transplanting, the containers are flooded and the water level is maintained at 1.5 to 3 cm above the soil surface. […] The treated containers are placed on greenhouse benches, watered such that the water level is maintained as stated above, and cared for in accordance with conventional greenhouse procedures.

[17] = tested on: GLXMAW (Soybean, Williams); assay: Postemergence herbicidal evaluation; type: in vivo, Glycine max, (L.) Merr. cv Williams; settings: rate 0.0620 kg/ha
Method: as §4, §1

SETVI (Setaria viridis) [18] = assay: Postemergence herbicidal evaluation; type: in vivo, (L.) Beau; settings: rate 0.0620 kg/ha
Method: In the tests, seedling plants are grown in jiffy flats for about two weeks. The test compounds are dispersed in 50/50 acetone/water mixtures containing 0.5% TWEEN® 20, a polyoxyethylene sorbitan monolaurate surfactant of Atlas Chemical Industries, in sufficient quantities to provide the equivalent of about 0.0040 kg to 1.000 kg per hectare of active compound when applied to the plants through a spray nozzle operating at 40 psi for a predetermined time. After spraying, the plants are placed on greenhouse benches and are cared for in accordance with conventional greenhouse procedures. From four to five weeks after treatment, the seedling plants are examined and rated according to the rating system set forth below. Where more than one test is involved for a given compound, the data are averaged.
as §1

[19] = tested on: GLXMAW (Soybean, Williams); assay: Preemergence herbicidal evaluation; type: in vivo, Glycine max, (L.) Merr. cv Williams; settings: Rate 0.2500 kg/ha; preemergence; rated 4-5 weeks after treatment
From the text: as §1, §3

ZEAMX (Corn, Field) [20] = assay: Preemergence herbicidal evaluation; type: in vivo, Zea mays, L.; settings: Rate 0.2500 kg/ha; preemergence; rated 4-5 weeks after treatment
From the text: as §1, §3

[21] = tested on: SAGPY (Sagittaria pygmaea); assay: Flooded paddy, preemergence weed control; type: in vivo, L.; settings: rate 0.1250 kg/ha, rated 3-4 weeks after treatment, 0-9 rating scale
Method: as §1, §2

ORYSAT (Rice, Tebonnet) [22] = assay: Postemergence herbicidal evaluation; type: in vivo, Oryza sativa, (L.) Tebonnet; settings: rate 0.0620 kg/ha
Method: as §4, §1

[23] = tested on: TRZAWR (Wheat, Winter, cv Riband); assay: Postemergence herbicidal evaluation; type: in vivo, Triticum aestivum; settings: rate 0.0620 kg/ha
Method: as §4, §1

GALAP (Galium aparine) [24] = assay: Postemergence herbicidal evaluation; type: in vivo; settings: rate 0.0620 kg/ha
Method: as §4, §1

[25] = tested on: AMBEL (Ambrosia artemisifolia); assay: Postemergence herbicidal evaluation; type: in vivo, L.; settings: rate 0.0620 kg/ha
Method: as §4, §1

[26] = tested on: CASOB (Cassia obtusifolia); assay: Postemergence herbicidal evaluation; type: in vivo, L.; settings: rate 0.0620 kg/ha
Method: as §4, §1

[27] = tested on: ABUTH (Abutilon theophrasti); assay: Postemergence herbicidal evaluation; type: in vivo, Medic.; settings: rate 0.0620 kg/ha
Method: as §4, §1

`Cn1c(C(F)(F)F)cc(=O)n(-c2ccc3c(c2)C(c2cccc[n+]2[O-])=NS3(=O)=O)c1=O` [Compound 15, 1-methyl-3-[3-(2-pyridyl)-1,2-benzisothiazol-5-yl]-6-(trifluoromethyl)uracil N′,S,S-trioxide] was tested, and the “herbicidal rating, CYPIR” value (CYPIR (Cyperus iria)) was 0.0, the “IPOHE preemergence herbicidal rating” value [1] was 6.0 and the “ABUTH preemergence herbicidal rating” value [2] was 7.0. For the same compound, the “ECHCG preemergence herbicidal rating” value [3] was 5.0, the “SETVI preemergence herbicidal rating” value (SETVI (Setaria viridis) [4]) was 5.0 and the “herbicidal rating, ECHORC” value [5] was 0.0. The “Postemergence herbicidal rating, IPOHE” value [6] was 9.0, the “GALAP preemergence herbicidal rating” value (GALAP (Galium aparine) [7]) was 0.0 and the “TRZAWR preemergence herbicidal rating” value [8] was 3.0. For the same compound, the “herbicidal rating, CYPSE” value [9] was 0.0, the “AMBEL preemergence herbicidal rating” value [10] was 7.0 and the “CASOB preemergence herbicidal rating” value [11] was 0.0. For the same compound, the “CHEAL preemergence herbicidal rating” value [12] was 9.0, the “Postemergence herbicidal rating, ZEAMX” value (ZEAMX (Corn, Field) [13]) was 5.0 and the “ORYSAT preemergence herbicidal rating” value (ORYSAT (Rice, Tebonnet) [14]) was 3.0. For the same compound, the “Postemergence herbicidal rating, ECHCG” value [15] was 1.0, the “herbicidal rating, ORYSAT (rice tolerance)” value (ORYSAT (Rice, Tebonnet) [16]) was 0.0 and the “Postemergence herbicidal rating, GLXMAW” value [17] was 5.0. For the same compound, the “Postemergence herbicidal rating, SETVI” value (SETVI (Setaria viridis) [18]) was 1.0, the “GLXMAW preemergence herbicidal rating” value [19] was 2.0 and the “ZEAMX preemergence herbicidal rating” value (ZEAMX (Corn, Field) [20]) was 1.0. For the same compound, the “herbicidal rating, SAGPY” value [21] was 0.0, the “Postemergence herbicidal rating, ORYSAT” value (ORYSAT (Rice, Tebonnet) [22]) was 3.5 and the “Postemergence herbicidal rating, TRZAWR” value [23] was 3.5. The “Postemergence herbicidal rating, GALAP” value (GALAP (Galium aparine) [24]) was 1.0, the “Postemergence herbicidal rating, AMBEL” value [25] was 9.0 and the “Postemergence herbicidal rating, CASOB” value [26] was 1.0. For the same compound, the “Postemergence herbicidal rating, ABUTH” value [27] was 6.0.
